According to patent EP4722207A1, “OXOISOINDOLINYL-SUBSTITUTED TETRAHYDROPYRIMIDINEDIONE DERIVATIVE AND USE THEREOF” (Gluetacs Therapeutics (Shanghai) Co., Ltd., priority 2023, dated 2024):

What was measured:
Format in all cases: cell-based
GSPT1 = target: T1, GSPT1 (Homo sapiens, UniProt P15170+Q96SW2); test: Western-blot assay, substrate protein degradation in hPBMCs: GSPT1; conditions: for GSPT1 substrate protein remaining %: compounds at 50 nM and 500 nM, 24 hours; for substrate protein remaining % GSPT1: 24 hours of compound treatment, 50 nM and 500 nM
T1 construct: effects of the compounds of the present disclosure on the expression of target proteins in cells; endogenous in cells; host or cells: human PBMCs (hPBMCs)
T1 sequence (P15170 whole entry): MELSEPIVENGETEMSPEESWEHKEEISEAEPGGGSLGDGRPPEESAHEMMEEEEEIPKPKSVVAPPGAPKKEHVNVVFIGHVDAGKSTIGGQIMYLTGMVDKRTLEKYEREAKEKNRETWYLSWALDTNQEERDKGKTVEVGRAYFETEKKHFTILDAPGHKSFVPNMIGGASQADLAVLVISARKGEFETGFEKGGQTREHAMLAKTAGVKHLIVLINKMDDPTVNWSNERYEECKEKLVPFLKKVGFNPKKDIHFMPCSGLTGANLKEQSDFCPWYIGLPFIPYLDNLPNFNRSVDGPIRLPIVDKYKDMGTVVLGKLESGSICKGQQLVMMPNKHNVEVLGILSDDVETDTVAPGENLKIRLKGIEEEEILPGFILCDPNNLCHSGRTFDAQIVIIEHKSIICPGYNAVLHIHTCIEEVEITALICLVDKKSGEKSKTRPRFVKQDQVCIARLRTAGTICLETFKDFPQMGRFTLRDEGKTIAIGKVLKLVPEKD
T1 sequence (Q96SW2 whole entry): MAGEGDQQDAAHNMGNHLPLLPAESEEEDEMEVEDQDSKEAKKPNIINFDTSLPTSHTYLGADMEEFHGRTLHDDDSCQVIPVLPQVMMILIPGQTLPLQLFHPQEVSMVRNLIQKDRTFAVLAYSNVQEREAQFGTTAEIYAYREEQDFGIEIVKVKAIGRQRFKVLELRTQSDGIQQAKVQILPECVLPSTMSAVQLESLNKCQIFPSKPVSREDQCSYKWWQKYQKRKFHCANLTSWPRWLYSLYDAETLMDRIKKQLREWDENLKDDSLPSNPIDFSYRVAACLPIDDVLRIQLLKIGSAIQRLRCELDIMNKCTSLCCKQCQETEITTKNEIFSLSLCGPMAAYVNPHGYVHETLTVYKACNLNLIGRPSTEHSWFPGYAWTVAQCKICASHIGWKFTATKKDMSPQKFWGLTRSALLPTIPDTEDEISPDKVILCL
T1 sequence (Q16531 whole entry partner): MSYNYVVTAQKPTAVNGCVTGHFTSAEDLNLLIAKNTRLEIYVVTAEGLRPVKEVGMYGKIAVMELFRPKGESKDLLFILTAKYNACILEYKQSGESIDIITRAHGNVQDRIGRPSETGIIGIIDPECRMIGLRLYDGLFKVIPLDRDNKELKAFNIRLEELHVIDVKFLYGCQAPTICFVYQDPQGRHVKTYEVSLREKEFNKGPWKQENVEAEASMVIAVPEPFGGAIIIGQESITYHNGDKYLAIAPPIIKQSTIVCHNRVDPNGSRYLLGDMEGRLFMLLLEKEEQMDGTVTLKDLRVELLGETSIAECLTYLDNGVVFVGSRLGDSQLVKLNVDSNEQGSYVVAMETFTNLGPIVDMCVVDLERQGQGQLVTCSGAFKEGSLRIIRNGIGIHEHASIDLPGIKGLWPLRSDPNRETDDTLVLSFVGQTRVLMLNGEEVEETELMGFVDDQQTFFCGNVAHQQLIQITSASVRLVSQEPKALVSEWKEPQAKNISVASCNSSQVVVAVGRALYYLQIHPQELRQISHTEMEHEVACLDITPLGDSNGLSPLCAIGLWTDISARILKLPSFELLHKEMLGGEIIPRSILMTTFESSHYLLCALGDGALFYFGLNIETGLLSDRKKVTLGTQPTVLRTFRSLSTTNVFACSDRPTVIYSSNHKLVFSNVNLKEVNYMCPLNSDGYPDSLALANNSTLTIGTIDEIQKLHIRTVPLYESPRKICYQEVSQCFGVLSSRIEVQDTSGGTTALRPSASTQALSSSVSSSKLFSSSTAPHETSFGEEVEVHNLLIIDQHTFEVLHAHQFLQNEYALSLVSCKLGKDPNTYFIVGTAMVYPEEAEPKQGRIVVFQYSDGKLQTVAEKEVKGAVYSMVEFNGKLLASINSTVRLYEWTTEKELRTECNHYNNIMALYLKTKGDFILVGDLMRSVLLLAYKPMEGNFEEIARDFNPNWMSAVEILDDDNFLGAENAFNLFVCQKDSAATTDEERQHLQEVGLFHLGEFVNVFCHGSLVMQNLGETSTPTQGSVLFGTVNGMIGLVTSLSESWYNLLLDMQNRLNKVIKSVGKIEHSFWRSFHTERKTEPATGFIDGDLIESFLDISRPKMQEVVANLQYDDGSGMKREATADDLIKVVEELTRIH

CK1α = target: T2, CK1α (Homo sapiens, UniProt P48729+Q96SW2); test: Western-blot assay, substrate protein degradation in hPBMCs: CK1α; conditions: for CK1α substrate protein remaining %: compounds at 50 nM and 500 nM, 24 hours; for substrate protein remaining % CK1α: 24 hours of compound treatment, 50 nM and 500 nM
T2 construct: effects of the compounds of the present disclosure on the expression of target proteins in cells; endogenous in cells; host or cells: human PBMCs (hPBMCs)

IKZF3 = target: T3, IKZF3 (Homo sapiens, UniProt Q96SW2+Q9UKT9); test: Western-blot assay, substrate protein degradation in hPBMCs: IKZF3; conditions: for IKZF3 substrate protein remaining %: compounds at 50 nM and 500 nM, 24 hours; for substrate protein remaining % IKZF3: 24 hours of compound treatment, 50 nM and 500 nM
T3 construct: effects of the compounds of the present disclosure on the expression of target proteins in cells; endogenous in cells; host or cells: human PBMCs (hPBMCs)
T3 sequence (Q9UKT9 whole entry): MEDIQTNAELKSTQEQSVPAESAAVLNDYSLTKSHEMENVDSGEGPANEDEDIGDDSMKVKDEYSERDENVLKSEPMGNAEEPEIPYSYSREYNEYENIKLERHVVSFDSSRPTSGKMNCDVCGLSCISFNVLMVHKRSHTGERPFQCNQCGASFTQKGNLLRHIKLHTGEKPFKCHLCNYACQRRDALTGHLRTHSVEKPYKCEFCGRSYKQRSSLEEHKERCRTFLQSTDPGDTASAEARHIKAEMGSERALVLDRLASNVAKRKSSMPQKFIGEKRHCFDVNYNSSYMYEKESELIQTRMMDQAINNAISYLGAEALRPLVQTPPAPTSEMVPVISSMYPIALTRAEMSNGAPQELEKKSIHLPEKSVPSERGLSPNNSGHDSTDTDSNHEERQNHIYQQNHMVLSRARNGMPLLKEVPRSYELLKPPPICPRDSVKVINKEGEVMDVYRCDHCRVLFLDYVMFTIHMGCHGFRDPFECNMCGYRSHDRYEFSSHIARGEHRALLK
T3 sequence (Q96SW2 whole entry): as the sequence (Q96SW2 whole entry) above
T3 sequence (Q16531 whole entry partner): as the sequence (Q16531 whole entry partner) above

IKZF2 = target: T4, IKZF2 (Homo sapiens, UniProt Q96SW2+Q9UKS7); test: Western-blot assay, substrate protein degradation in hPBMCs: IKZF2; conditions: for IKZF2 substrate protein remaining %: compounds at 50 nM and 500 nM, 24 hours; for substrate protein remaining % IKZF2: 24 hours of compound treatment, 50 nM and 500 nM
T4 construct: effects of the compounds of the present disclosure on the expression of target proteins in cells; endogenous in cells; host or cells: human PBMCs (hPBMCs)
T4 sequence (Q9UKS7 whole entry): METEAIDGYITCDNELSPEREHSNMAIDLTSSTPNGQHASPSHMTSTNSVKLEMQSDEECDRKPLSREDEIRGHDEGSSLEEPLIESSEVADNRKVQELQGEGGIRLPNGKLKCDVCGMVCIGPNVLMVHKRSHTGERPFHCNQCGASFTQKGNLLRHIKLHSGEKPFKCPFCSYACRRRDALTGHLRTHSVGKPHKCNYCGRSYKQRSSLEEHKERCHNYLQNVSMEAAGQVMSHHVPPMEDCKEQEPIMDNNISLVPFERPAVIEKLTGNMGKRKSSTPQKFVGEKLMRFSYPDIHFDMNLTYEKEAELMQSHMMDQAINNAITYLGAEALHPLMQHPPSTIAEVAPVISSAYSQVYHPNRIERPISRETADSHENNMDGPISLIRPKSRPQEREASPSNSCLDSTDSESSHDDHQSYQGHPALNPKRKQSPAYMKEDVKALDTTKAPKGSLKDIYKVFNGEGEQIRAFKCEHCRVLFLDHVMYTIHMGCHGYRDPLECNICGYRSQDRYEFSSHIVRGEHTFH
T4 sequence (Q96SW2 whole entry): as the sequence (Q96SW2 whole entry) above
T4 sequence (Q16531 whole entry partner): as the sequence (Q16531 whole entry partner) above

IKZF1 = target: T5, IKZF1 (Homo sapiens, UniProt Q13422+Q96SW2); test: Western-blot assay, substrate protein degradation in hPBMCs: IKZF1; conditions: for IKZF1 substrate protein remaining %: compounds at 50 nM and 500 nM, 24 hours; for substrate protein remaining % IKZF1: 24 hours of compound treatment, 50 nM and 500 nM
T5 construct: effects of the compounds of the present disclosure on the expression of target proteins in cells; endogenous in cells; host or cells: human PBMCs (hPBMCs)
T5 sequence (Q13422 whole entry): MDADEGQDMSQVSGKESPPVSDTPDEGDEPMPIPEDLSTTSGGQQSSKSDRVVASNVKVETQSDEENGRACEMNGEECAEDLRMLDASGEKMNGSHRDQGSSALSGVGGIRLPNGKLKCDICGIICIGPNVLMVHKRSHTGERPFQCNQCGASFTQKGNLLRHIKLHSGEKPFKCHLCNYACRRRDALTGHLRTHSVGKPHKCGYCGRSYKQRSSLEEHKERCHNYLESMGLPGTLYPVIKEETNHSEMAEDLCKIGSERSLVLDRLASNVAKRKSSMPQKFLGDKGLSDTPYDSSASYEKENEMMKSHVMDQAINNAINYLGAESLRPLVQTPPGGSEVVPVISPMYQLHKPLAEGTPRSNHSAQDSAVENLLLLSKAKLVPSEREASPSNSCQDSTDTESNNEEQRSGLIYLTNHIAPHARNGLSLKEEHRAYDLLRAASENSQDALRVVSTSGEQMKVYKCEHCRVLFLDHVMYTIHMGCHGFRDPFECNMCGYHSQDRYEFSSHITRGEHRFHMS
T5 sequence (Q96SW2 whole entry): as the sequence (Q96SW2 whole entry) above
T5 sequence (Q16531 whole entry partner): as the sequence (Q16531 whole entry partner) above

WEE1 = target: T6, WEE1 (Homo sapiens, UniProt P30291+Q96SW2); test: Western-blot assay, substrate protein degradation in hPBMCs: WEE1; conditions: for WEE1 substrate protein remaining %: compounds at 50 nM and 500 nM, 24 hours; for substrate protein remaining % WEE1: 24 hours of compound treatment, 50 nM and 500 nM
T6 construct: effects of the compounds of the present disclosure on the expression of target proteins in cells; endogenous in cells; host or cells: human PBMCs (hPBMCs)
T6 sequence (P30291 whole entry): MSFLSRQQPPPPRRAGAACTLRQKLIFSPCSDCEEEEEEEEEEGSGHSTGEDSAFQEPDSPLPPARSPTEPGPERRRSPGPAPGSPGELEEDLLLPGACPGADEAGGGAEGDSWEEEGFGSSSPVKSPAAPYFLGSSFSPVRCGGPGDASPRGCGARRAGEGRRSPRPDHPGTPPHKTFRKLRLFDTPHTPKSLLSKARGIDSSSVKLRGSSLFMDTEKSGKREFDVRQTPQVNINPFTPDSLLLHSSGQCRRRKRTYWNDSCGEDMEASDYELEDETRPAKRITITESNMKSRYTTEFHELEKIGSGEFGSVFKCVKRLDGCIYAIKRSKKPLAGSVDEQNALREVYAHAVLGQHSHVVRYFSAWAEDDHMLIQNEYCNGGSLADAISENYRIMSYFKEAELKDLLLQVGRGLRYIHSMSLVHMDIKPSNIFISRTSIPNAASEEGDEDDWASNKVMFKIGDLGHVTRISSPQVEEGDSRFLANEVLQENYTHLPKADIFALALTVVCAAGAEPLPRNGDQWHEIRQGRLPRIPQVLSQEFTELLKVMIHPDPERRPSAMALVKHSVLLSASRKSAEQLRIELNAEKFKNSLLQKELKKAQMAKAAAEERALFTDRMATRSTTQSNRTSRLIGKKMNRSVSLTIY
T6 sequence (Q96SW2 whole entry): as the sequence (Q96SW2 whole entry) above
T6 sequence (Q16531 whole entry partner): as the sequence (Q16531 whole entry partner) above

Row | Structure (SMILES) | GSPT1 substrate protein remaining % (GSPT1) | CK1α substrate protein remaining % (CK1α) | IKZF3 substrate protein remaining % (IKZF3) | IKZF2 substrate protein remaining % (IKZF2) | IKZF1 substrate protein remaining % (IKZF1) | WEE1 substrate protein remaining % (WEE1) | substrate protein remaining % GSPT1 (GSPT1) | substrate protein remaining % CK1α (CK1α) | substrate protein remaining % IKZF3 (IKZF3) | substrate protein remaining % IKZF2 (IKZF2) | substrate protein remaining % IKZF1 (IKZF1) | substrate protein remaining % WEE1 (WEE1)
1 | Cc1cc(N2CCN(Cc3ccc4c(c3)CN(N3CCC(=O)NC3=O)C4=O)CC2)cc(C)n1 [GT-07033, 1-(5-((4-(2,6-dimethylpyridin-4-yl)piperazin-1-yl)methyl)-1-oxoisoindolin-2-yl)dihydropyrimidine-2,4(1H,3H)-dione] | A ("A" is defined as 0% ≤ substrate protein remaining % ≤ 80%) | B ("B" is defined as 80%< substrate protein remaining %≤ 100%) | B ("B" is defined as 80%< substrate protein remaining %≤ 100%) | B ("B" is defined as 80%< substrate protein remaining %≤ 100%) | B ("B" is defined as 80%< substrate protein remaining %≤ 100%) | B ("B" is defined as 80%< substrate protein remaining %≤ 100%) |  |  |  |  |  | 
2 | Cc1ccc(N2CCN(Cc3ccc4c(c3)CN(N3CCC(=O)NC3=O)C4=O)CC2)c(C)c1 [GT-06882, 1-(5-((4-(2,4-dimethylphenyl)piperazin-1-yl)methyl)-1-oxoisoindolin-2-yl)dihydropyrimidine-2,4(1H,3H)-dione] | A ("A" is defined as 0% ≤ substrate protein remaining % ≤ 80%) | B ("B" is defined as 80%< substrate protein remaining %≤ 100%) | B ("B" is defined as 80%< substrate protein remaining %≤ 100%) | B ("B" is defined as 80%< substrate protein remaining %≤ 100%) | A ("A" is defined as 0% ≤ substrate protein remaining % ≤ 80%) | A ("A" is defined as 0% ≤ substrate protein remaining % ≤ 80%) |  |  |  |  |  | 
3 | O=C1CCN(N2Cc3cc(CN4CC5CCC(C4)N5c4cccc(Cl)c4Cl)ccc3C2=O)C(=O)N1 [GT-07429, 1-(5-((8-(2,3-dichlorophenyl)-3,8-diazabicyclo[3.2.1]octan-3-yl)methyl)-1-oxoisoindolin-2-yl)dihydropyrimidine-2,4(1H,3H)-dione] |  |  |  |  |  |  | B (80%< substrate protein remaining %≤ 100%) | B (80%< substrate protein remaining %≤ 100%) | B (80%< substrate protein remaining %≤ 100%) | B (80%< substrate protein remaining %≤ 100%) | A (0% ≤ substrate protein remaining % ≤ 80%) | B (80%< substrate protein remaining %≤ 100%)
4 | O=C1CCN(N2Cc3cc(CN4CCC(c5n[nH]c6cc(F)ccc56)CC4)ccc3C2=O)C(=O)N1 [GT-07508, 1-(5-((4-(6-fluoro-1H-indazol-3-yl)piperidin-1-yl)methyl)-1-oxoisoindolin-2-yl)dihydropyrimidine-2,4(1H,3H)-dione] |  |  |  |  |  |  | A (0% ≤ substrate protein remaining % ≤ 80%) | A (0% ≤ substrate protein remaining % ≤ 80%) | B (80%< substrate protein remaining %≤ 100%) | A (0% ≤ substrate protein remaining % ≤ 80%) | A (0% ≤ substrate protein remaining % ≤ 80%) | A (0% ≤ substrate protein remaining % ≤ 80%)
5 | O=C1CCN(N2C(=O)c3ccc(CN4CCC(C5CCOc6cc(F)ccc65)CC4)cc3C2=O)C(=O)N1 (stereo not drawn) [GT-07684, 2-(2,4-dioxotetrahydropyrimidin-1(2H)-yl)-5-((4-(7-fluorochroman-4-yl)piperidin-1-yl)methyl)isoindoline-1,3-dione] |  |  |  |  |  |  | A (0% ≤ substrate protein remaining % ≤ 80%) | B (80%< substrate protein remaining %≤ 100%) | B (80%< substrate protein remaining %≤ 100%) | B (80%< substrate protein remaining %≤ 100%) | B (80%< substrate protein remaining %≤ 100%) | B (80%< substrate protein remaining %≤ 100%)
6 | O=C1CCN(N2C(=O)c3ccc(CN4CCc5sccc5C4)cc3C2=O)C(=O)N1 [GT-05254, 5-((6,7-dihydrothieno[3,2-c]pyridin-5(4H)-yl)methyl)-2-(2,4-dioxotetrahydropyrimidin-1(2H)-yl)isoindoline-1,3-dione] | A ("A" is defined as 0% ≤ substrate protein remaining % ≤ 80%) | B ("B" is defined as 80%< substrate protein remaining %≤ 100%) | B ("B" is defined as 80%< substrate protein remaining %≤ 100%) | B ("B" is defined as 80%< substrate protein remaining %≤ 100%) | B ("B" is defined as 80%< substrate protein remaining %≤ 100%) | B ("B" is defined as 80%< substrate protein remaining %≤ 100%) |  |  |  |  |  | 
7 | O=C1CCN(N2Cc3cc(CN4CCC(c5ccnc(F)c5F)CC4)ccc3C2=O)C(=O)N1 [GT-06396, 1-(5-((4-(2,3-difluoropyridin-4-yl)piperidin-1-yl)methyl)-1-oxoisoindolin-2-yl)dihydropyrimidine-2,4(1H,3H)-dione] | B ("B" is defined as 80%< substrate protein remaining %≤ 100%) | A ("A" is defined as 0% ≤ substrate protein remaining % ≤ 80%) | B ("B" is defined as 80%< substrate protein remaining %≤ 100%) | B ("B" is defined as 80%< substrate protein remaining %≤ 100%) | B ("B" is defined as 80%< substrate protein remaining %≤ 100%) | B ("B" is defined as 80%< substrate protein remaining %≤ 100%) |  |  |  |  |  | 
8 | O=C1CCN(N2Cc3cc(CN4CC5CCC4CN5c4cccc(Cl)c4Cl)ccc3C2=O)C(=O)N1 (stereo not drawn) [GT-07428, 1-(5-((5-(2,3-dichlorophenyl)-2,5-diazabicyclo[2.2.2]octan-2-yl)methyl)-1-oxoisoindolin-2-yl)dihydropyrimidine-2,4(1H,3H)-dione] |  |  |  |  |  |  | A (0% ≤ substrate protein remaining % ≤ 80%) | A (0% ≤ substrate protein remaining % ≤ 80%) | B (80%< substrate protein remaining %≤ 100%) | B (80%< substrate protein remaining %≤ 100%) | A (0% ≤ substrate protein remaining % ≤ 80%) | B (80%< substrate protein remaining %≤ 100%)
9 | O=C1CCN(N2Cc3cc(CN4CCC(N5CCOc6cc(F)ccc65)CC4)ccc3C2=O)C(=O)N1 [GT-07585, 1-(5-((4-(7-fluoro-2,3-dihydro-4H-benzo[b][1,4]oxazin-4-yl)piperidin-1-yl)methyl)-1-oxoisoindolin-2-yl)dihydropyrimidine-2,4(1H,3H)-dione] |  |  |  |  |  |  | A (0% ≤ substrate protein remaining % ≤ 80%) | B (80%< substrate protein remaining %≤ 100%) | B (80%< substrate protein remaining %≤ 100%) | B (80%< substrate protein remaining %≤ 100%) | A (0% ≤ substrate protein remaining % ≤ 80%) | A (0% ≤ substrate protein remaining % ≤ 80%)
10 | O=C1CCN(N2C(=O)c3ccc(CN4CCN(c5cc(Cl)nnc5Cl)CC4)cc3C2=O)C(=O)N1 [GT-07036, 5-((4-(3,6-dichloropyridazin-4-yl)piperazin-1-yl)methyl)-2-(2,4-dioxotetrahydropyrimidin-1(2H)-yl)isoindoline-1,3-dione] | A ("A" is defined as 0% ≤ substrate protein remaining % ≤ 80%) | B ("B" is defined as 80%< substrate protein remaining %≤ 100%) | B ("B" is defined as 80%< substrate protein remaining %≤ 100%) | B ("B" is defined as 80%< substrate protein remaining %≤ 100%) | B ("B" is defined as 80%< substrate protein remaining %≤ 100%) | B ("B" is defined as 80%< substrate protein remaining %≤ 100%) |  |  |  |  |  | 
11 | Cc1ccc(N2CCN(Cc3ccc4c(c3)CN(N3CCC(=O)NC3=O)C4=O)CC2)cc1 [GT-06771, 1-(1-oxo-5-((4-(p-tolyl)piperazin-1-yl)methyl)isoindolin-2-yl)dihydropyrimidine-2,4(1H,3H)-dione] | A ("A" is defined as 0% ≤ substrate protein remaining % ≤ 80%) | A ("A" is defined as 0% ≤ substrate protein remaining % ≤ 80%) | A ("A" is defined as 0% ≤ substrate protein remaining % ≤ 80%) | A ("A" is defined as 0% ≤ substrate protein remaining % ≤ 80%) | B ("B" is defined as 80%< substrate protein remaining %≤ 100%) | A ("A" is defined as 0% ≤ substrate protein remaining % ≤ 80%) |  |  |  |  |  | 
12 | Cc1cscc1C1=CCN(Cc2ccc3c(c2)C(=O)N(N2CCC(=O)NC2=O)C3=O)CC1 [GT-05316, 2-(2,4-dioxotetrahydropyrimidin-1(2H)-yl)-5-((4-(4-methylthiophen-3-yl)-3,6-dihydropyridin-1(2H)-yl)methyl)isoindoline-1,3-dione] | A ("A" is defined as 0% ≤ substrate protein remaining % ≤ 80%) | B ("B" is defined as 80%< substrate protein remaining %≤ 100%) | B ("B" is defined as 80%< substrate protein remaining %≤ 100%) | B ("B" is defined as 80%< substrate protein remaining %≤ 100%) | B ("B" is defined as 80%< substrate protein remaining %≤ 100%) | B ("B" is defined as 80%< substrate protein remaining %≤ 100%) |  |  |  |  |  | 
